Measured values taken from US9365528B2 (Southern Research Institute, priority 2011, dated 2016).
Where two headings read alike, the source gives them in different places.

Key:
[1] = test system: Colo741; experiment: Tumor cell growth inhibition, cell viability assay (Cell Titer Glo), 72 h; format: cell-based; details: Homo sapiens, COLO-741; Table 3; colon adenocarcinoma; 72 hours of treatment
Description: (§1) The potency to inhibit tumor cell growth was determined by calculating IC50 values using a standard cell viability assay (Cell Titer Glo, Promega Corp,) following 72 hours of treatment. The human colon tumor cell lines, HT-29, SW480, HCT116, and Colo 741 were derived from colon adenocarcinomas, while LT97 is derived from an adenoma. Fetal human colonocytes (FHC) are representative of normal colonocytes. The lack of effect inhibiting cyclooxygenases 1 and 2 (COX-1 and -2) is also shown.

[2] = test system: LT97; experiment: as above; format: cell-based; details: Homo sapiens; Table 3; adenoma; 72 hours of treatment
Description: as §1

[3] = test system: HCT116; experiment: as above; format: cell-based; details: Homo sapiens, HCT-116
Description: as §1

[4] = test system: HT29; experiment: as above; format: cell-based; details: Homo sapiens, HT-29
Description: as §1

[5] = test system: SW480; experiment: as above; format: cell-based; details: Homo sapiens
Description: as §1

[6] = test system: MDA-MB-231; experiment: as above; details: Homo sapiens
Description: (§2) The enzyme activity was measured using a colorimetric assay using recombinant COX enzymes. […] The growth inhibitory activity was determined following 72 hours of treatment using a standard cell viability assay (Cell Titer Glo, Promega Corp).

[7] = test system: Fetal human colonocytes (FHC); experiment: Cell growth inhibition, cell viability assay (Cell Titer Glo), 72 h; format: cell-based; details: Table 3, normal colonocytes, 72 hours of treatment
Description: as §1

[8] = test system: MCF-7; experiment: Breast tumor cell growth inhibitory activity; format: cell-based; details: Homo sapiens, MCF7; Table 1, breast
[9] = molecular target: COX-1 (Homo sapiens, UniProt P23219); experiment: COX inhibition, colorimetric assay with recombinant COX enzymes
Chain of COX-1 (P23219 24-599): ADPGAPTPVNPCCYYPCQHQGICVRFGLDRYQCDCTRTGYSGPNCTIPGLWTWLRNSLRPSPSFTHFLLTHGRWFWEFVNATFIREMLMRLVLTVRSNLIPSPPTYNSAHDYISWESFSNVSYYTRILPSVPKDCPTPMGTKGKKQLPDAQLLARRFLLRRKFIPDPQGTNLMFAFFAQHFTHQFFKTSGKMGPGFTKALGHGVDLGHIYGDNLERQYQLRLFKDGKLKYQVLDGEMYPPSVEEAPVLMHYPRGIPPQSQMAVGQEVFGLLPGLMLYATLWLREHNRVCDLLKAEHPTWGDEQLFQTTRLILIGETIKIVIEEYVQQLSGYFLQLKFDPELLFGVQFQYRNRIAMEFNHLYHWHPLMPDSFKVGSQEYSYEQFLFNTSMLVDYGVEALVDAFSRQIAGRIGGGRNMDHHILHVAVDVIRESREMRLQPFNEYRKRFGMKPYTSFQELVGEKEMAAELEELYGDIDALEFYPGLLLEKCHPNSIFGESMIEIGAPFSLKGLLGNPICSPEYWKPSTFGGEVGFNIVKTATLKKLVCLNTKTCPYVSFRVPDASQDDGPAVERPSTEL
Description: as §2

[10] = molecular target: T1, COX-2 (Homo sapiens, UniProt P35354); experiment: as above
T1 sequence (P35354 18-604): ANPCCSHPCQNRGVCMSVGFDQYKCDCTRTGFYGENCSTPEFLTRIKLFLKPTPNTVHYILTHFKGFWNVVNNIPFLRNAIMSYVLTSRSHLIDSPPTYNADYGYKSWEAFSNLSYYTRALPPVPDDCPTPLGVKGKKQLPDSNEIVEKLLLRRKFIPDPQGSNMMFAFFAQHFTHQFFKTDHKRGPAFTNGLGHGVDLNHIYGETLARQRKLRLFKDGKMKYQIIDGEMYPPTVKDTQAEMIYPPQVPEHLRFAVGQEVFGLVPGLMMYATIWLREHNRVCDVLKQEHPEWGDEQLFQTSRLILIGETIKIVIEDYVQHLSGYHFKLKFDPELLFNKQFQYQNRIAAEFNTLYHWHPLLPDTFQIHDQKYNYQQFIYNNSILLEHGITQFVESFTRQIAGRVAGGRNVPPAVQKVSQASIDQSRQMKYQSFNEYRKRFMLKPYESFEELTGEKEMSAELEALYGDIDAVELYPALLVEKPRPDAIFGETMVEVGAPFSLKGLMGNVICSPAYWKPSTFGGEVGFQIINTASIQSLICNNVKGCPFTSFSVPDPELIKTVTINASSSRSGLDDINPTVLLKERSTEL
Description: as §2

[11] = test system: SKBR3; experiment: Breast tumor cell growth inhibitory activity; format: cell-based; details: Homo sapiens, SK-BR-3; Table 1, breast
[12] = test system: PC3; experiment: Tumor cell growth inhibitory activity; format: cell-based; details: Homo sapiens, PC-3
[13] = Table 1, colon, read-out: Colon tumor cell growth inhibitory activity (IC50, μM) HCT116
[14] = Table 3, colon adenocarcinoma, 72 hours of treatment, read-out: HCT116 (IC50)
[15] = Table 1, colon, read-out: Colon tumor cell growth inhibitory activity (IC50, μM) HT29
[16] = Table 3, colon adenocarcinoma, 72 hours of treatment, read-out: HT29 (IC50)
[17] = Table 1, colon, read-out: Colon tumor cell growth inhibitory activity (IC50, μM) SW480
[18] = Table 3, colon adenocarcinoma, 72 hours of treatment, read-out: SW480 (IC50)
[19] = MDA-MB-231, read-out: Breast tumor cell growth inhibitory activity (IC50, μM) MDA-MB-231
[20] = Table 1, compounds 10-13, read-out: Tumor cell growth inhibitory activity (IC50, μM) HT29
[21] = scheme table, read-out: IC50 (μM) HT29
[22] = MDA-MB-231, read-out: IC50 (μM) MDA-MB-231
[23] = MDA-MB-231, read-out: Tumor cell growth inhibitory activity (IC50, μM) MDA-MB-231 (breast)
[24] = Table 1, compounds 10-13, read-out: Tumor cell growth inhibitory activity (IC50, μM) PC3
[25] = scheme table, read-out: IC50 (μM) PC3

SMILES	IC50 [1] [µM]	IC50 [2] [µM]	IC50 [3, 13] [µM]	IC50 [3, 14] [µM]	IC50 [4, 15] [µM]	IC50 [4, 16] [µM]	IC50 [5, 17] [µM]	IC50 [5, 18] [µM]	IC50 [6, 19] [µM]	IC50 [7] [µM]	IC50 [8] [µM]	IC50 [11] [µM]	IC50 [4, 20] [µM]	IC50 [4, 21] [µM]	IC50 [6, 22] [µM]	IC50 [6, 23] [µM]	IC50 [12, 24] [µM]	IC50 [12, 25] [µM]	other results
CSc1ccc(/C=C2/C(C)=C(CCNCc3ccccc3)c3cc(F)ccc32)cc1 [Compound 1]	8.85	6.82	4.9	4.93	2.7	2.67	3.3	3.28	5.8	7.83	6.8	3.4	–	–	–	–	–	–	IC50 [9]: > 200 µM; IC50 [10]: > 200 µM
CSc1ccc(/C=C2/C(C)=C(CCNCCN3CCCCC3)c3cc(F)ccc32)cc1 [Compound 3]	–	–	3.8	–	3	–	5.4	–	5.3	–	6.4	4.8	–	–	–	–	–	–	–
CSc1ccc(/C=C2/C(C)=C(CCN)c3cc(F)ccc32)cc1 [Compound 4]	–	–	4.9	–	4.1	–	4.1	–	5.5	–	5.9	3.9	–	–	–	–	–	–	–
CC1=C(CCNCc2ccco2)c2cc(F)ccc2/C1=C\c1ccc([S+](C)[O-])cc1 (centres unmarked) [Compound 7]	–	–	–	–	2.3	–	–	–	3.7	–	–	–	–	–	–	–	–	–	–
CC1=C(CCNCc2ccccc2)c2cc(F)ccc2/C1=C\c1ccc(S(C)(=O)=O)cc1 [Compound 9]	5.87	8.85	–	6.44	1.8	2.02	–	5.36	–	11.2	–	–	–	–	–	–	–	–	IC50 [9]: > 100 µM; IC50 [10]: > 100 µM
CSc1ccc(/C=C2/C(C)=C(CN)c3cc(F)ccc32)cc1 [Compound 10, (Z)-(5-Fluoro-2-methyl-1-(4-(methylthio)benzylidene)-1H-inden-3-yl)methanamine]	–	–	–	–	–	–	–	–	–	–	–	–	16	16	19.3	19.3	33.6	33.6	–
COc1cc(/C=C2/C(C)=C(CN)c3cc(F)ccc32)cc(OC)c1OC [Compound 11, (Z)-(5-Fluoro-2-methyl-1-(3,4,5-trimethoxybenzylidene)-1H-inden-3-yl)methanamine]	–	–	–	–	–	–	–	–	–	–	–	–	14.6	14.6	15.3	15.3	29.7	29.7	–
CSc1ccc(/C=C2/C(C)=C(CN(Cc3ccncc3)Cc3ccncc3)c3cc(F)ccc32)cc1 [Compound 12, (Z)-1-(5-Fluoro-2-methyl-1-(4-(methylthio)benzylidene)-1H-inden-3-yl)-N,N-bis(pyridin-4-ylmethyl)methanamine]	–	–	–	–	–	–	–	–	–	–	–	–	10.8	10.8	9.5	9.5	12.7	12.7	–
COc1cc(/C=C2/C(C)=C(CN(Cc3ccncc3)Cc3ccncc3)c3cc(F)ccc32)cc(OC)c1OC [Compound 13, (Z)-1-(5-Fluoro-2-methyl-1-(3,4,5-trimethoxybenzylidene)-1H-inden-3-yl)-N,N-bis(pyridin-4-ylmethyl)methanamine]	–	–	–	–	–	–	–	–	–	–	–	–	9.83	9.83	8.21	8.21	9.09	9.09	melting point: 66.4 °C
CSc1ccc(/C=C2/C(C)=C(CC(=O)O)c3cc(F)ccc32)cc1 [Sulindac sulfide, reference compound]	150	37.8	–	73.3	–	73.6	–	85.2	–	> 200	–	–	–	–	–	–	–	–	–
